Reference: PubChem BioAssay (NCI)
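96-well plates; 48 h exposure; 5 concentrations. Endpoints by linear interpolation between flanking doses. Not reached: highest tested concentration assigned. Abbreviation: GI50, concentration required for 50% inhibition of growth. TGI: concentration producing complete growth inhibition.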

Assays:
Assay in all cases: NCI anticancer screen, dose series, 48 h
[1] = test system: SNB-75 CNS
[2] = test system: NCI-H23 lung
[3] = test system: DU-145 prostate
[4] = test system: OVCAR-3 ovarian
[5] = test system: CCRF-CEM leukemia
[6] = test system: HT29 colon
[7] = test system: K-562 leukemia
[8] = test system: SNB-19 CNS
[9] = test system: CAKI-1 renal
[10] = test system: A498 renal

Compound: CSc1nnc(CCSc2ccnc3c(C(F)(F)F)cccc23)o1
- GI50 [1]: 19.6 µM
- TGI [1]: > 100 µM
- GI50 [2]: > 100 µM
- TGI [2]: > 100 µM
- GI50 [3]: > 100 µM
- TGI [3]: > 100 µM
- GI50 [4]: 91.9 µM
- TGI [4]: > 100 µM
- GI50 [5]: 67.9 µM
- TGI [5]: > 100 µM
- GI50 [6]: > 100 µM
- TGI [6]: > 100 µM
- GI50 [7]: 47.3 µM
- TGI [7]: > 100 µM
- GI50 [8]: 61.6 µM
- TGI [8]: > 100 µM
- GI50 [9]: 31.8 µM
- TGI [9]: > 100 µM

Compound: CC1=C2CCCC2C/C(=N/Nc2ccc([N+](=O)[O-])cc2[N+](=O)[O-])CC1 (centres undefined)
- TGI [10]: > 100 µM
- TGI [1]: > 100 µM
- TGI [2]: > 100 µM
- TGI [4]: > 100 µM
- TGI [6]: > 100 µM
- TGI [7]: > 100 µM
- TGI [8]: > 100 µM
- TGI [9]: > 100 µM

Compound: CN(C)CCCNC(=O)c1cc(NC(=O)CCNS(=O)(=O)c2ccc3c(c2)C(=O)c2ccccc2C3=O)cn1C
- GI50 [10]: > 100 µM
- TGI [10]: > 100 µM
- GI50 [2]: > 100 µM
- TGI [2]: > 100 µM
- GI50 [4]: > 100 µM
- TGI [4]: > 100 µM
- GI50 [5]: > 100 µM
- TGI [5]: > 100 µM
- GI50 [6]: > 100 µM
- TGI [6]: > 100 µM
- GI50 [7]: > 100 µM
- TGI [7]: > 100 µM
- GI50 [8]: > 100 µM
- TGI [8]: > 100 µM
- GI50 [9]: > 100 µM
- TGI [9]: > 100 µM

Compound: CCC[CH2][Sn]([CH2]CCC)([O]C(C)=O)[O]C(C)=O
- GI50 [1]: 1.02 µM
- TGI [1]: 2.63 µM
- GI50 [2]: 1.21 µM
- TGI [2]: 2.91 µM
- GI50 [4]: 1.53 µM
- TGI [4]: 3.02 µM
- GI50 [5]: 0.197 µM
- TGI [5]: 0.832 µM
- GI50 [6]: 1.7 µM
- TGI [6]: 3.53 µM
- GI50 [7]: 0.299 µM
- TGI [7]: 2.59 µM
- GI50 [8]: 1.14 µM
- TGI [8]: 2.35 µM
- GI50 [9]: 0.638 µM
- TGI [9]: 2.23 µM

Compound: COc1ccc(Cn2nc(-c3cc(OC)c(OC)c(OC)c3)c3c2CCc2cnoc2-3)cc1OC
- GI50 [10]: 2 µM
- TGI [10]: 9.8 µM
- GI50 [1]: 1.39 µM
- TGI [1]: 5.64 µM
- GI50 [2]: 3.43 µM
- TGI [2]: 64 µM
- GI50 [3]: 13.2 µM
- TGI [3]: > 100 µM
- GI50 [4]: 3.29 µM
- TGI [4]: 9.61 µM
- GI50 [5]: 3.17 µM
- TGI [5]: > 100 µM
- GI50 [6]: 3.8 µM
- TGI [6]: > 100 µM
- GI50 [8]: 7.99 µM
- TGI [8]: > 100 µM

Compound: COc1ccc(C(=O)/C=C/c2ccc(Cl)cc2)cc1S(=O)(=O)Nc1c(N)nc(SC)[nH]c1=O
- GI50 [10]: 10.6 µM
- TGI [10]: 22.4 µM
- GI50 [2]: 2.53 µM
- TGI [2]: 6.36 µM
- GI50 [3]: 3.58 µM
- TGI [3]: 11.5 µM
- GI50 [4]: 1.94 µM
- TGI [4]: 3.94 µM
- GI50 [5]: 2.66 µM
- TGI [5]: 8.97 µM
- GI50 [6]: 2.93 µM
- TGI [6]: 7.93 µM
- GI50 [7]: 2.77 µM
- TGI [7]: > 100 µM
- GI50 [8]: 2.52 µM
- TGI [8]: 8.34 µM
- GI50 [9]: 3.83 µM
- TGI [9]: 18.6 µM

Compound: CC(=O)/C(=C\c1ccco1)C(=O)Nc1ccccc1
- TGI [2]: > 100 µM
- TGI [4]: > 100 µM
- TGI [5]: > 100 µM
- TGI [6]: > 100 µM
- TGI [7]: > 100 µM
- TGI [8]: > 100 µM
- TGI [9]: > 100 µM

Compound: COC(=O)CCC(=O)N1Cc2cc(C)ccc2N(C(=O)CCC(=O)OC)Cc2cc(C)ccc21
- TGI [2]: > 100 µM
- TGI [4]: > 100 µM
- TGI [5]: > 100 µM
- TGI [6]: > 100 µM
- TGI [7]: > 100 µM
- TGI [9]: > 100 µM

Compound: C=C1C(=O)O[C@H]2C[C@@H](C)[C@@H]3CC(=O)OC[C@@]3(C)CC12 (some centres undefined)
- TGI [1]: > 100 µM
- TGI [2]: 62.5 µM
- TGI [4]: 74.6 µM
- TGI [5]: 55.6 µM
- TGI [6]: 50.1 µM
- TGI [7]: 68.5 µM
- TGI [8]: > 100 µM
- TGI [9]: 51 µM

Compound: O=C1C/C(=C/c2ccc(/C=C3/CC(=O)N(c4cccc(Br)c4)C3=O)cc2)C(=O)N1c1cccc(Br)c1
- TGI [10]: > 100 µM
- TGI [1]: 53.1 µM
- TGI [2]: > 100 µM
- TGI [4]: > 100 µM
- TGI [5]: > 100 µM
- TGI [6]: > 100 µM
- TGI [7]: > 100 µM
- TGI [8]: > 100 µM
- TGI [9]: > 100 µM

Compound: Cn1c(=O)c2[nH]c(/N=N/N3CCN(CCO)CC3)nc2n(C)c1=O
- TGI [10]: > 100 µM
- TGI [2]: > 100 µM
- TGI [3]: > 100 µM
- TGI [4]: > 100 µM
- TGI [5]: > 100 µM
- TGI [6]: > 100 µM
- TGI [7]: > 100 µM
- TGI [8]: > 100 µM
- TGI [9]: > 100 µM

Compound: COc1cccc(OC(=O)c2ccccc2Nc2ccnc(C(F)(F)F)c2)c1
- GI50 [2]: 2.04 µM
- TGI [2]: 6.73 µM
- GI50 [4]: 1.65 µM
- TGI [4]: 10.5 µM
- GI50 [6]: 3.68 µM
- TGI [6]: > 100 µM
- GI50 [7]: 0.739 µM
- TGI [7]: > 100 µM
- GI50 [8]: 3.52 µM
- TGI [8]: > 100 µM
- GI50 [9]: 2.68 µM
- TGI [9]: 80.2 µM

Compound: CN(C)c1ccc2c(NCCCCCCNc3ccnc4cc(N(C)C)ccc34)ccnc2c1
- TGI [10]: 95.8 µM
- TGI [2]: 27.2 µM
- TGI [4]: 27.7 µM
- TGI [5]: > 100 µM
- TGI [6]: > 100 µM
- TGI [7]: > 100 µM
- TGI [8]: 16.4 µM
- TGI [9]: > 100 µM

Compound: COC12C=CC(CC1)c1c(O)ccc(O)c12 (centres undefined)
- TGI [10]: > 100 µM
- TGI [1]: > 100 µM
- TGI [2]: > 100 µM
- TGI [4]: 44.2 µM
- TGI [5]: 65.1 µM
- TGI [6]: > 100 µM
- TGI [7]: 61.8 µM
- TGI [8]: > 100 µM
- TGI [9]: > 100 µM

Compound: O=C(CCN1CCCC1)Nc1ccc2c(NCc3ccc(F)cc3)c3ccccc3nc2c1
- GI50 [10]: 0.733 µM
- TGI [10]: 2.26 µM
- GI50 [1]: 0.506 µM
- TGI [1]: 1.87 µM
- GI50 [2]: 0.413 µM
- TGI [2]: 1.67 µM
- GI50 [3]: 0.368 µM
- TGI [3]: 1.54 µM
- GI50 [4]: 0.488 µM
- TGI [4]: 1.92 µM
- GI50 [5]: 0.463 µM
- TGI [5]: 13.4 µM
- GI50 [6]: 0.377 µM
- TGI [6]: 1.85 µM
- GI50 [8]: 0.47 µM
- TGI [8]: 1.87 µM
- GI50 [9]: 1.42 µM
- TGI [9]: 5.42 µM

Compound: Cc1ccc(C(=O)Nc2ccc(S(=O)(=O)O)c3cc(S(=O)(=O)O)cc(S(=O)(=O)O)c23)cc1NC(=O)c1cccc(N)c1
- TGI [10]: > 100 µM
- TGI [1]: > 100 µM
- TGI [2]: > 100 µM
- TGI [4]: > 100 µM
- TGI [5]: > 100 µM
- TGI [6]: > 100 µM
- TGI [7]: > 100 µM
- TGI [8]: > 100 µM
- TGI [9]: > 100 µM

Compound: COc1ccc2c(c1)CCC1C2CCC2(C)C1CCC2(O)CNC(=O)CCCCC1CCSS1 (centres undefined)
- GI50 [10]: 73.4 µM
- TGI [10]: > 100 µM
- GI50 [2]: 20.8 µM
- TGI [2]: > 100 µM
- GI50 [3]: 46.3 µM
- TGI [3]: > 100 µM
- GI50 [4]: 8.65 µM
- TGI [4]: 29.2 µM
- GI50 [5]: 1.59 µM
- TGI [5]: 4.33 µM
- GI50 [6]: 2.28 µM
- TGI [6]: 6.81 µM
- GI50 [7]: 2.63 µM
- TGI [7]: > 100 µM
- GI50 [8]: 18.1 µM
- TGI [8]: 51.1 µM
- GI50 [9]: 18.1 µM
- TGI [9]: 40.2 µM

Compound: Cc1ccc2c(c1)C1(C)OC(CC(N)C1O)O2 (centres undefined)
- TGI [1]: > 100 µM
- TGI [2]: > 100 µM
- TGI [4]: > 100 µM
- TGI [5]: > 100 µM
- TGI [6]: > 100 µM
- TGI [7]: > 100 µM
- TGI [8]: > 100 µM

Compound: CC1CC2C(=O)NC(=O)C2c2[nH]c3ccccc3c21 (centres undefined)
- TGI [1]: > 100 µM
- TGI [2]: > 100 µM
- TGI [4]: > 100 µM
- TGI [5]: > 100 µM
- TGI [6]: > 100 µM
- TGI [7]: > 100 µM
- TGI [9]: > 100 µM
